According to PubChem BioAssay (NCI):
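48-hour exposure; five concentrations; linearly interpolated endpoints. The concentration for 50% growth inhibition is given as GI50. At the TGI there is no net growth.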

Experiments:
Assay in all cases: NCI tumour cell line growth inhibition, 48 h
[1] = system: 786-0 renal
[2] = system: A498 renal
[3] = system: A549 NSCLC
[4] = system: ACHN renal
[5] = system: BT-549 breast
[6] = system: CAKI-1 renal
[7] = system: CCRF-CEM leukemia
[8] = system: COLO 205 colon
[9] = system: DU-145 prostate
[10] = system: EKVX NSCLC
[11] = system: HCC-2998 colon
[12] = system: HCT-116 colon
[13] = system: HCT-15 colon
[14] = system: HL-60(TB) leukemia
[15] = system: HOP-62 NSCLC
[16] = system: HOP-92 NSCLC
[17] = system: HS 578T breast
[18] = system: HT29 colon
[19] = system: IGROV1 ovarian
[20] = system: K-562 leukemia
[21] = system: KM12 colon
[22] = system: LOX IMVI melanoma
[23] = system: M14 melanoma
[24] = system: MALME-3M melanoma
[25] = system: MCF7 breast
[26] = system: MDA-MB-231 breast
[27] = system: MDA-MB-435
[28] = system: MDA-MB-468 breast
[29] = system: MOLT-4 leukemia
[30] = system: NCI-H226 lung
[31] = system: NCI-H23 lung
[32] = system: NCI-H460 lung
[33] = system: NCI-H522 lung
[34] = system: NCI/ADR-RES ovarian
[35] = system: OVCAR-3 ovarian
[36] = system: OVCAR-4 ovarian
[37] = system: OVCAR-5 ovarian
[38] = system: OVCAR-8 ovarian
[39] = system: PC-3 prostate
[40] = system: RPMI-8226 leukemia
[41] = system: RXF 393 renal
[42] = system: SF-268 CNS
[43] = system: SF-295 CNS
[44] = system: SF-539 CNS
[45] = system: SK-MEL-2 melanoma
[46] = system: SK-MEL-28 melanoma
[47] = system: SK-MEL-5 melanoma
[48] = system: SK-OV-3 ovarian
[49] = system: SN12C renal
[50] = system: SNB-19 CNS
[51] = system: SNB-75 CNS
[52] = system: SR leukemia
[53] = system: SW-620 colon
[54] = system: T-47D breast
[55] = system: TK-10 renal
[56] = system: U251 CNS
[57] = system: UACC-257 melanoma
[58] = system: UACC-62 melanoma
[59] = system: UO-31 renal

S=C(Nc1ccc(OCc2nc3ccc(Cl)cc3[nH]2)cc1)NC1CCCCC1
GI50 [1]: 7.4 µM
TGI [1]: 21.4 µM
GI50 [2]: 11.2 µM
TGI [2]: 23.8 µM
GI50 [3]: 6.51 µM
TGI [3]: 21.6 µM
GI50 [4]: 4.99 µM
TGI [4]: 17.4 µM
GI50 [5]: 15 µM
TGI [5]: 29.1 µM
GI50 [6]: 3.47 µM
TGI [6]: 15.5 µM
GI50 [7]: 3.59 µM
TGI [7]: 16.6 µM
GI50 [8]: 10.2 µM
TGI [8]: 27.6 µM
GI50 [9]: 11.3 µM
TGI [9]: 27.7 µM
GI50 [10]: 7.23 µM
TGI [10]: 20.9 µM
GI50 [11]: 3.12 µM
TGI [11]: 12.5 µM
GI50 [12]: 5.99 µM
TGI [12]: 21.5 µM
GI50 [13]: 5.5 µM
TGI [13]: 18.7 µM
GI50 [14]: 2.63 µM
TGI [14]: 13.2 µM
GI50 [15]: 12.3 µM
TGI [15]: 26.4 µM
GI50 [16]: 3.27 µM
TGI [16]: 14.7 µM
GI50 [17]: 7.33 µM
TGI [17]: 28.7 µM
GI50 [18]: 4.44 µM
TGI [18]: 16 µM
GI50 [19]: 6.95 µM
TGI [19]: 20.2 µM
GI50 [20]: 3.57 µM
TGI [20]: 15.1 µM
GI50 [21]: 4.8 µM
TGI [21]: 17.5 µM
GI50 [22]: 2.83 µM
TGI [22]: 11.5 µM
GI50 [23]: 6.73 µM
TGI [23]: 22.5 µM
GI50 [24]: 11.6 µM
TGI [24]: 23.8 µM
GI50 [25]: 2.87 µM
TGI [25]: 12.4 µM
GI50 [26]: 7.42 µM
TGI [26]: 20.4 µM
GI50 [27]: 6.97 µM
TGI [27]: 22 µM
GI50 [28]: 2.97 µM
TGI [28]: 13.2 µM
GI50 [29]: 4.01 µM
TGI [29]: 13.9 µM
GI50 [30]: 10.8 µM
TGI [30]: 29.1 µM
GI50 [31]: 8.56 µM
TGI [31]: 21.4 µM
GI50 [32]: 3.96 µM
TGI [32]: 14.2 µM
GI50 [33]: 2.9 µM
TGI [33]: 12.6 µM
GI50 [34]: 9.57 µM
TGI [34]: 25.3 µM
GI50 [35]: 4.44 µM
TGI [35]: 18.8 µM
GI50 [36]: 6.82 µM
TGI [36]: 25.1 µM
GI50 [37]: 10.8 µM
TGI [37]: 22.6 µM
GI50 [38]: 13.1 µM
TGI [38]: 28.5 µM
GI50 [39]: 4.29 µM
TGI [39]: 18.7 µM
GI50 [40]: 7.09 µM
TGI [40]: 41.8 µM
GI50 [41]: 6.21 µM
TGI [41]: 20.5 µM
GI50 [42]: 8.19 µM
TGI [42]: 24.5 µM
GI50 [43]: 9.72 µM
TGI [43]: 22.9 µM
GI50 [44]: 12.1 µM
TGI [44]: 24.5 µM
GI50 [45]: 11.4 µM
TGI [45]: 24.5 µM
GI50 [46]: 12.1 µM
TGI [46]: 24.5 µM
GI50 [47]: 5.79 µM
TGI [47]: 19.5 µM
GI50 [48]: 13.4 µM
TGI [48]: 27 µM
GI50 [49]: 8.32 µM
TGI [49]: 21.2 µM
GI50 [50]: 10.7 µM
TGI [50]: 22.6 µM
GI50 [51]: 1.79 µM
TGI [51]: 15.2 µM
GI50 [52]: 2.61 µM
TGI [52]: 8.45 µM
GI50 [53]: 9.55 µM
TGI [53]: 24.2 µM
GI50 [54]: 7.75 µM
TGI [54]: 26.2 µM
GI50 [55]: 12.4 µM
TGI [55]: 24.9 µM
GI50 [56]: 11.7 µM
TGI [56]: 24.8 µM
GI50 [57]: 7.53 µM
TGI [57]: 21.6 µM
GI50 [58]: 6.68 µM
TGI [58]: 20.4 µM
GI50 [59]: 3.88 µM
TGI [59]: 16.6 µM
